Entries after “also recorded” stand apart in the source; their conditions may differ.
What was measured:
[1] = test system: bovine corneal endothelial cells (BCEC); assay: Stimulation of BCEC DNA synthesis by recombinant peptide growth factors (tritiated thymidine); format: cell-based; details: for Relative potency as mitogen for BCEC (in words): absence of other added serum components, ten peptide growth factors compared, EGF first, TGF-α second; for Stimulation of DNA synthesis of BCEC (in words): serum-free CDM, FIG. 5
Experimental: Pure cultures of BCEC were established from freshly obtained cow eyes by trypsin treatment of the endothelial surface. Early passage cultures were trypsinized and seeded into 24 well plates as described above. After the cells had been synchronized by serum deprivation, BCEC were cultured in CDM containing tritiated thymidine and solutions of peptide growth factors produced by recombinant DNA technology. Radioactivity incorporated into DNA was measured as described previously.

fibroblasts = details: in vitro; Haigler & Carpenter 1980; cited from earlier work
[2] = test system: endothelial cell division; assay: Intraocular injection of TGF-α solution in a patient with endothelium failure; format: in vivo; details: 100 μg/ml in buffered saline, 0.1 ml per injection into the anterior chamber, single or series
Experimental: A patient is diagnosed as requiring a corneal implant due to endothelium failure as a result of such conditions as Fuch's dystrophy or a marginal endothelial count either prior to or after cataract surgery. As an alternative to transplant surgery, the patient undergoes a single or series of intraocular injections of a solution of TGF-α in buffered saline. The concentration of the TFG-α is 100 μg/ml and 0.1 ml of solution are injected into the anterior chamber per injection.

Substance | Relative potency as mitogen for BCEC (in words) [1] | Minimum exposure time to induce fibroblasts to divide (fibroblasts) [h] | Stimulation of DNA synthesis of BCEC (in words) [1] | Effect of injections on endothelial cell division [2]
epidermal growth factor [EGF] | second only to EGF in potency | ≥ 6 | – | –
multiplication stimulating activity | – | – | failed to stimulate DNA synthesis | –
nerve growth factor | – | – | failed to stimulate DNA synthesis | –
platelet-derived growth factor | – | – | failed to stimulate DNA synthesis | –
transforming growth factor alpha [TGF-α] | very potent mitogen for BCEC; also recorded: potent mitogen | – | – | enhance endothelial cell division

Source: patent US5310728A, “Method for treating corneal endothelial wounds” (Chiron Ophthalmics, Inc., priority 1992, dated 1994)
